Results reported in the supplement of paper PMC10307832.

What was measured:
Assay in all cases: relative viability (nuclei count vs DMSO), 5 days (fraction); higher = more cells survive
EPLC-272H = system: EPLC-272H
In short: (§1)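 Relative viability equals treated-well nuclei counts divided by vehicle-well nuclei counts. Counts came from 4× images of lung cancer cell lines grown in 1536-well plates for 5 days after pin-tool dosing on the day after seeding. Dosing used one drug alone or a fixed anchor-drug dose plus five library-drug doses (not always all listed) in √10 steps, and values are medians of duplicate plates.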

NCI-H2085 = system: NCI-H2085
In short: as §1

NCI-H1975 = system: NCI-H1975
In short: as §1

LXF-289 = system: LXF-289
In short: as §1

SW 900 = system: SW 900
In short: as §1

HCC-827 = system: HCC-827
In short: as §1

LK-2 = system: LK-2
In short: as §1

HCC-78 = system: HCC-78
In short: as §1

SK-LU-1 = system: SK-LU-1
In short: as §1

NCI-H23 = system: NCI-H23
In short: as §1

NCI-H2405 = system: NCI-H2405
In short: as §1

NCI-H322M = system: NCI-H322M
In short: as §1

LCLC-103H = system: LCLC-103H
In short: as §1

EMC-BAC-2 = system: EMC-BAC-2
In short: as §1

NCI-H2126 = system: NCI-H2126
In short: as §1

LOU-NH91 = system: LOU-NH91
In short: as §1

SW 1573 = system: SW 1573
In short: as §1

RERF-LC-KJ = system: RERF-LC-KJ
In short: as §1

NCI-H3122 = system: NCI-H3122
In short: as §1

ChaGo-K-1 = system: ChaGo-K-1
In short: as §1

LU99A = system: LU99A
In short: as §1

NCI-H1666 = system: NCI-H1666
In short: as §1

`CC1(C)CCC(c2ccc(Cl)cc2)=C(CN2CCN(c3ccc(C(=O)NS(=O)(=O)c4ccc(N[C@H](CCN5CCOCC5)CSc5ccccc5)c(S(=O)(=O)C(F)(F)F)c4)cc3)CC2)C1` [Navitoclax] + CC(=O)Nc1cccc(-n2c(=O)n(C3CC3)c(=O)c3c(Nc4ccc(I)cc4F)n(C)c(=O)c(C)c32)c1 [Trametinib] (partner 0.02 µM) was tested, and the relative viability (EPLC-272H; first compound 0.005 µM) was 0.239, the relative viability (EPLC-272H; first compound 0.05 µM) was 0.272 and the relative viability (EPLC-272H; first compound 0.1581 µM) was 0.298. For the same compound, the relative viability (EPLC-272H; first compound 0.5 µM) was 0.277, the relative viability (NCI-H2085; first compound 0.005 µM) was 0.567 and the relative viability (NCI-H2085; first compound 0.01581 µM) was 0.645. The relative viability (NCI-H2085; first compound 0.05 µM) was 0.402, the relative viability (NCI-H2085; first compound 0.1581 µM) was 0.621 and the relative viability (NCI-H2085; first compound 0.5 µM) was 0.552. The relative viability (NCI-H1975; first compound 0.005 µM) was 0.427, the relative viability (NCI-H1975; first compound 0.01581 µM) was 0.409 and the relative viability (NCI-H1975; first compound 0.05 µM) was 0.236. It also gave a relative viability (NCI-H1975; first compound 0.1581 µM) of 0.399, a relative viability (NCI-H1975; first compound 0.5 µM) of 0.316 and a relative viability (LXF-289; first compound 0.005 µM) of 0.649. The relative viability (LXF-289; first compound 0.01581 µM) was 0.709, the relative viability (LXF-289; first compound 0.05 µM) was 0.633 and the relative viability (LXF-289; first compound 0.1581 µM) was 0.69. For the same compound, the relative viability (LXF-289; first compound 0.5 µM) was 0.692, the relative viability (SW 900; first compound 0.005 µM) was 0.706 and the relative viability (SW 900; first compound 0.01581 µM) was 0.981. It also gave a relative viability (SW 900; first compound 0.1581 µM) of 0.828, a relative viability (SW 900; first compound 0.5 µM) of 0.81 and a relative viability (HCC-827; first compound 0.005 µM) of 0.528. For the same compound, the relative viability (HCC-827; first compound 0.01581 µM) was 0.567, the relative viability (HCC-827; first compound 0.05 µM) was 0.446 and the relative viability (HCC-827; first compound 0.1581 µM) was 0.514. It also gave a relative viability (HCC-827; first compound 0.5 µM) of 0.55, a relative viability (LK-2; first compound 0.005 µM) of 0.76 and a relative viability (LK-2; first compound 0.01581 µM) of 0.868. For the same compound, the relative viability (LK-2; first compound 0.05 µM) was 0.922, the relative viability (LK-2; first compound 0.1581 µM) was 0.807 and the relative viability (LK-2; first compound 0.5 µM) was 0.695. The relative viability (HCC-78; first compound 0.005 µM) was 0.653, the relative viability (HCC-78; first compound 0.01581 µM) was 0.826 and the relative viability (HCC-78; first compound 0.05 µM) was 0.59. The relative viability (HCC-78; first compound 0.1581 µM) was 0.727, the relative viability (HCC-78; first compound 0.5 µM) was 0.727 and the relative viability (SK-LU-1; first compound 0.005 µM) was 0.716. The relative viability (SK-LU-1; first compound 0.01581 µM) was 0.57, the relative viability (SK-LU-1; first compound 0.05 µM) was 0.296 and the relative viability (SK-LU-1; first compound 0.1581 µM) was 0.601. The relative viability (SK-LU-1; first compound 0.5 µM) was 0.433, the relative viability (NCI-H23; first compound 0.005 µM) was 0.338 and the relative viability (NCI-H23; first compound 0.01581 µM) was 0.436. For the same compound, the relative viability (NCI-H23; first compound 0.05 µM) was 0.443, the relative viability (NCI-H23; first compound 0.1581 µM) was 0.357 and the relative viability (NCI-H23; first compound 0.5 µM) was 0.412. For the same compound, the relative viability (NCI-H2405; first compound 0.005 µM) was 0.535, the relative viability (NCI-H2405; first compound 0.01581 µM) was 0.75 and the relative viability (NCI-H2405; first compound 0.05 µM) was 0.67. For the same compound, the relative viability (NCI-H2405; first compound 0.1581 µM) was 0.596, the relative viability (NCI-H2405; first compound 0.5 µM) was 0.661 and the relative viability (NCI-H322M; first compound 0.005 µM) was 0.538. The relative viability (NCI-H322M; first compound 0.01581 µM) was 0.533, the relative viability (NCI-H322M; first compound 0.05 µM) was 0.453 and the relative viability (NCI-H322M; first compound 0.1581 µM) was 0.484. For the same compound, the relative viability (NCI-H322M; first compound 0.5 µM) was 0.539, the relative viability (LCLC-103H; first compound 0.005 µM) was 0.637 and the relative viability (LCLC-103H; first compound 0.01581 µM) was 0.731. For the same compound, the relative viability (LCLC-103H; first compound 0.05 µM) was 0.704, the relative viability (LCLC-103H; first compound 0.1581 µM) was 0.691 and the relative viability (LCLC-103H; first compound 0.5 µM) was 0.685. For the same compound, the relative viability (EMC-BAC-2; first compound 0.005 µM) was 0.728, the relative viability (EMC-BAC-2; first compound 0.01581 µM) was 0.87 and the relative viability (EMC-BAC-2; first compound 0.05 µM) was 0.866. It also gave a relative viability (EMC-BAC-2; first compound 0.1581 µM) of 0.848, a relative viability (EMC-BAC-2; first compound 0.5 µM) of 0.806 and a relative viability (NCI-H2126; first compound 0.005 µM) of 0.554. The relative viability (NCI-H2126; first compound 0.01581 µM) was 0.639, the relative viability (NCI-H2126; first compound 0.05 µM) was 0.638 and the relative viability (NCI-H2126; first compound 0.1581 µM) was 0.524. The relative viability (NCI-H2126; first compound 0.5 µM) was 0.561, the relative viability (LOU-NH91; first compound 0.005 µM) was 0.776 and the relative viability (LOU-NH91; first compound 0.01581 µM) was 0.829. The relative viability (LOU-NH91; first compound 0.05 µM) was 0.607, the relative viability (LOU-NH91; first compound 0.1581 µM) was 0.685 and the relative viability (LOU-NH91; first compound 0.5 µM) was 0.33. The relative viability (SW 1573; first compound 0.005 µM) was 0.623, the relative viability (SW 1573; first compound 0.01581 µM) was 0.5 and the relative viability (SW 1573; first compound 0.05 µM) was 0.654. It also gave a relative viability (SW 1573; first compound 0.1581 µM) of 0.475, a relative viability (SW 1573; first compound 0.5 µM) of 0.474 and a relative viability (RERF-LC-KJ; first compound 0.005 µM) of 0.823. For the same compound, the relative viability (RERF-LC-KJ; first compound 0.01581 µM) was 0.847, the relative viability (RERF-LC-KJ; first compound 0.05 µM) was 0.969 and the relative viability (RERF-LC-KJ; first compound 0.1581 µM) was 0.938. The relative viability (RERF-LC-KJ; first compound 0.5 µM) was 0.985, the relative viability (NCI-H3122; first compound 0.005 µM) was 0.243 and the relative viability (NCI-H3122; first compound 0.01581 µM) was 0.221. It also gave a relative viability (NCI-H3122; first compound 0.05 µM) of 0.217, a relative viability (NCI-H3122; first compound 0.1581 µM) of 0.222 and a relative viability (NCI-H3122; first compound 0.5 µM) of 0.211. For the same compound, the relative viability (ChaGo-K-1; first compound 0.005 µM) was 0.812, the relative viability (ChaGo-K-1; first compound 0.01581 µM) was 0.859 and the relative viability (ChaGo-K-1; first compound 0.05 µM) was 0.451. It also gave a relative viability (ChaGo-K-1; first compound 0.1581 µM) of 0.904, a relative viability (ChaGo-K-1; first compound 0.5 µM) of 0.837 and a relative viability (LU99A; first compound 0.005 µM) of 0.527. It also gave a relative viability (LU99A; first compound 0.01581 µM) of 0.597, a relative viability (LU99A; first compound 0.1581 µM) of 0.572 and a relative viability (LU99A; first compound 0.5 µM) of 0.674. The relative viability (NCI-H1666; first compound 0.005 µM) was 0.933, the relative viability (NCI-H1666; first compound 0.01581 µM) was 0.937 and the relative viability (NCI-H1666; first compound 0.05 µM) was 0.928. The relative viability (NCI-H1666; first compound 0.1581 µM) was 0.903 and the relative viability (NCI-H1666; first compound 0.5 µM) was 0.931.
